Reference: patent US20110065749A1, “METHOD AND PHARMACEUTICAL COMPOSITION FOR TREATMENT OF MENTAL DISORDERS” (ACTIVE CO. LTD., priority 2008, published 2011)
Where a name gives a salt, the structure may show the parent alone.

Tests used:
[1] = test system: Attention Deficit Hyperactivity Disorder (ADHD); assay: Case 1: ADHD patient treated with Cephadol; assay type: in vivo, human
Method: Case 1: Attention Deficit Hyperactivity Disorder (ADHD)
Patient was a person, who had often shown violent behaviors. Quarreling with a bad-mannered person on the road and performing violent acts such as hitting had occurred once or twice a week. […] When they discontinued the medication with 75 mg/day Cephadol®, the symptom returned to the previous state. The effect of Cephadol® appeared in about two days, and the symptom returned to the original state in 5 days after discontinuation of the drug.

Alzheimer-Type Dementia = assay: Case 4: Alzheimer-type dementia patient; assay type: in vivo, human; details: 50 mg before sleeping, added to donepezil hydrochloride
Source text: Case 4: Alzheimer-Type Dementia

[2] = test system: Behavioral and Psychological Symptoms of Dementia; assay: Case 5: behavioral and psychological symptoms of dementia; assay type: in vivo, human; details: 100 mg/day
Source text: Case 5: Effect on Behavioral and Psychological Symptoms of Dementia Patient was a person with dementia, who was irritable and easily excited, and had persecutory delusion.

Alcoholism = assay: Case 6: alcoholism patient; assay type: in vivo, human
Source text: Case 6: Alcoholism Patient was a office worker, who was drinking 1 to 2 liters of beer and 3 to 5 glasses of distilled spirit or whisky with water every day. They were drinking alcohol in daytime on Sundays, and suffering from a complication of liver dysfunction.

depression = assay: Case 9: depressed symptoms patient, HAMD; assay type: in vivo, human; details: 75 mg/day
Source text: For evaluation of the state of depression, for example, Hamilton's rating scale for depression (HAMD) is available. The HAMD was developed by Max Hamilton in 1960 for the purpose of measuring the severity of a patient diagnosed with depression (Hamilton, M., Journal of Neurology, Neurosurgery & Psychiatry, 23-56-62 (1960) and Hamilton, M., “Development of rating scale for primary depressive illness”, British Journal of Social and Clinical Psychology, 6: 278-296 (1967)). In view of its high usefulness, it is a representative scale of evaluation for depression, widely used in clinical researches and practices. The 17 item version is used for clinical trials of antidepressants in Japan, whereas the 21 item version and the 24 item version are used in Europe or other countries.
When the severity is calculated using Hamilton's rating scale for depression (HAMD), each item is evaluated with three grades of 0-2, or five grades of 0-4. For example, the case is diagnosed as severe where the point is 20 or higher and, as the point decreases, the symptom is diagnosed as being improved.
Case 9: Depressed Symptoms
Administration to the patient of 75 mg/day Cephadol® reduced the HAMD score from 20 points to 7 points after 3 days.

[3] = test system: Panic Disorder and Multiple Personality Disorder; assay: Case 10: panic disorder and multiple personality disorder patient; assay type: in vivo, human
Source text: Case 10: Panic Disorder and Multiple Personality Disorder
Patient was a single person, who had been treated at several psychiatric hospitals. […] They report that the medicine is best to calm their mind, and easier to take than any other drugs that they have ever taken.

Withdrawal Symptoms = assay: Case 13: withdrawal symptoms on reducing other drugs; assay type: in vivo, human
Method: Case 13: Withdrawal Symptoms A office worker had been on 10 mg Paxil®, 2 mg Rohypnol® and 2 mg Depas® before sleeping. Although they had tried to reduce the doses of the drugs, emergence of withdrawal syndrome had hampered the reduction of the drugs. They started to take Cephadol®, 25 mg after dinner and 50 mg before sleeping. It made them able to be free from the other drugs in two weeks.

Stiff Neck = assay: Case 14: seven subjects having stiff neck; assay type: in vivo, human; details: two 25 mg tablets two times a day, after two days, all seven subjects
Method: Case 14: Stiff Neck Stiff neck is often observed as a subjective symptom, and is one of the most serious complaints in the daily life. Seven subjects having stiff neck were given two 25 mg tablets of Cephadol® two times a day (after dinner and before sleeping).

Fibromyalgia [4] = assay: Case 15: fibromyalgia (1) patient; assay type: in vivo, human
Method: They then visited the inventor's clinic. When the inventor started the treatment with 75 mg/day Cephadol®, systemic pain of the patient was improved in two days. […] As a result, they became able to perform usual household work, go outside, and further make a trip.

Fibromyalgia [5] = assay: Case 17: fibromyalgia (3) patient; assay type: in vivo, human
Source text: […] Being unresponsive to prescribed medicines, they were instructed to do gentle stretching exercise and massage, as well as thermotherapy on affected areas. However, their arthralgia was so terrible that they could not perform stretching exercise or other directions. They had pain at all the 18 tender points of the whole body, a jaw abnormality, and a strong pain at both knee joints, which made their unable to go to hospital on foot.

Fibromyalgia [6] = assay: Case 18: fibromyalgia (4) patient; assay type: in vivo, human
Source text: Case 18: Fibromyalgia (4)
A person (housewife) is a patient with depression, having received regular medical treatment since seven years ago. […] However, a diagnosis with autoimmune disease or inflammatory disease was negative from their blood test. Due to back pain and fingertip pain, they were unable to make household work, and it was painful for them to hold even a light object by hand. They had pain at 15 points among the 18 tender points of the whole body, and was diagnosed with fibromyalgia. […] They had to stay in bed all day long, and such a condition lasted for the long term.

vertebral artery = details: dog experiments; cited from earlier work
[7] = 25 mg after dinner and 50 mg before sleeping

Compound: OC(CCCN1CCCCC1)(c1ccccc1)c1ccccc1 [Cephadol®, 1,1-diphenyl-4-piperidine-1-ylbuthan-1-ol monohydrochloride]
- side effects ([1]; 75 mg/day): no side effects
- impulsivity ([1]; 75 mg/day, on day seven): disappearance of the impulsivity
- impulsivity ([1]; 75 mg/day, on day two): reduction of impulsivity
- time until the symptom returned to the original state after discontinuation of the drug ([1]; after discontinuation of 75 mg/day): 5 days
- excitation caused by donepezil hydrochloride (Alzheimer-Type Dementia): reduced the excitation
- mental stability [2]: significantly improved mental stability
- nuisance behaviors caused by the persecutory delusion [2]: prevented their nuisance behaviors to other people
- side effects [2]: no side effects
- overdrinking (Alcoholism; 150 mg/day continued for three months): without any emergence of overdrinking
- side effects (Alcoholism; 150 mg/day for three months): without any side effects
- impulse to drink alcohol (Alcoholism; 150 mg/day, on the next day): eliminated their impulse to drink alcohol
- restlessness and anxiety (Alcoholism; 150 mg/day, on the next day): eliminated their restlessness and anxiety
- side effects (depression): There were side effects
- HAMD score (depression; after 3 days, from 20 points): 7 points
- panic disorder ([3]; 75 mg/day for one week, then 150 mg/day): significant improvement of panic disorder
- transformation of personality ([3]; 150 mg/day, previously 5 to 10 times a month): improved
- antianxiety effect ([3]; 75-150 mg/day): strong antianxiety effect
- side effects (Withdrawal Symptoms; [7]): no side effects
- time until free from the other drugs (Paxil, Rohypnol, Depas) (Withdrawal Symptoms; [7]): two
- outcome after tapering Cephadol (Withdrawal Symptoms; dose reduced from 50 mg to 25 mg, and to 0 mg): discontinuation of all the drugs
- stiff neck symptom (Stiff Neck): disappearance or a significant improvement of the symptom
- systemic pain (Fibromyalgia [4]; 75 mg/day, in two days): improved
- mobility of large joints (objective) (Fibromyalgia [4]; 150 mg/day): the mobility of large joints increased
- pain at 18 tender points including low back pain (Fibromyalgia [4]; 150 mg/day): totally improved
- arthralgia (Fibromyalgia [4]; 150 mg/day, increased one week later): complete elimination of arthralgia
- pain at both knee joints (Fibromyalgia [5]; 75 mg/day): improved the pain at both knee joints
- systemic pain (Fibromyalgia [5]; 75 mg/day): eliminated the systemic pain
- mobility of large joints (objective) (Fibromyalgia [5]; 125 mg/day): the mobility of large joints increased
- pain at both knee joints (Fibromyalgia [5]; dosage increased to 125 mg/day): the pain at both knee joints also disappeared
- pain at both knee joints (Fibromyalgia [5]; dosage reduced to 75 mg/day, on the next day): recurrence of the pain at both knee joints
- pain at both knee joints (Fibromyalgia [5]; dose re-increased to 125 mg/day, on the next day): eliminated the pain at both knee joints
- malaise (Fibromyalgia [6]; 75 mg/day): significant improvement in malaise
- mobility of large joints (objective) (Fibromyalgia [6]; 125 mg/day): the mobility of large joints increased
- back pain and fingertip pain (Fibromyalgia [6]; dose increased to 125 mg/day): improved the back pain and fingertip pain
- blood flow of the vertebral artery (vertebral artery): increase the blood flow thereof
- spasm of the vertebral artery (vertebral artery): remit the spasm of the vertebral artery
